This is an account of results in patent US10188704B2, “Enhanced melanoma cancer prevention by novel melanotropins” (ARIZONA BOARD OF REGENTS ON BEHALF OF THE UNIVERSITY OF …, priority 2015, dated 2019).

The target in data set [1] is T1, hMC1R (Homo sapiens, UniProt Q01726).
T1 construct: expressed in transfected cells; host or cells: HEK293
Nature of the data set: Competition binding assay with [125I]-NDP-α-MSH, whole HEK293 cells expressing hMC1R. To be noted: for MC1R % BE (Percent Binding Efficiency) / IC50: Table 4; for MC1R % BE (Percent Binding Efficiency): maximal % of 125I-NDP-α-MSH displacement observed at 10 μM; for IC50: 50% specific binding (N = 4), NB = 0% of 125I-NDP-α-MSH displacement observed at 10 μM, read-out: MC1R IC50; for selectivity towards hMC1R (binding, versus hMC3R, hMC4R, hMC5R): statement in words, refers to Table 4.
Protocol: (§1) Competition binding experiments were carried out using both of cloned cell line and melanoma cells (A375, ATCC). The whole HEK293 cells were stably expressing human MC1, MC3, MC4, and MC5 receptors. HEK293 cells transfected with hMCRs were seeded on 96-well plates 48 hours before assay (50,000 cells/well). For the assay, the cell culture medium was aspirated and the cells were washed once with a freshly prepared minimum essencial medium (MEM) buffer containing 100% minimum essential medium with Earle's salt (MEM, GIBCO), and 25 mM sodium bicarbonate. […] The assay medium was subsequently removed, the cells were washed once with basic medium, and then lysed by the addition of 100 μL of 0.1M NaOH and 100 μL of 1% Triton X-100.
(§2) IC50 values represent the mean of two experiments performed in triplicate. IC50 and EC50 estimates and their associated standard errors were determined by fitting the data using a nonlinear least squares analysis, with the help of GraphPad Prism 5 (GraphPad Software, San Diego, Calif.).

Data set [2] concerns the target T2, hMC3R (Homo sapiens, UniProt P41968). The data set is described as follows: Competition binding assay with [125I]-NDP-α-MSH, whole HEK293 cells expressing hMC3R. Further details: expressed in transfected cells; host or cells: HEK293. To be noted: for MC3R % BE (Percent Binding Efficiency): maximal % of 125I-NDP-α-MSH displacement observed at 10 μM.
Protocol: as §1, §2
The target of data set [3] is T3, hMC5R (Homo sapiens, UniProt P33032). Nature of the data set: Competition binding assay with [125I]-NDP-α-MSH, whole HEK293 cells expressing hMC5R. Further details: expressed in transfected cells; host or cells: HEK293. To be noted: for MC5R % BE (Percent Binding Efficiency): maximal % of 125I-NDP-α-MSH displacement observed at 10 μM.
Protocol: as §1, §2
The target in data set [4] is T4, hMC4R (Homo sapiens, UniProt P32245). The data set is described as follows: Competition binding assay with [125I]-NDP-α-MSH, whole HEK293 cells expressing hMC4R. Further details: expressed in transfected cells; host or cells: HEK293. To be noted: for MC4R % BE (Percent Binding Efficiency): maximal % of 125I-NDP-α-MSH displacement observed at 10 μM.
Protocol: as §1, §2
The target of data set [5] is T3, hMC5R. Nature of the data set: cAMP assay (intracellular cAMP accumulation) at hMC5R. The data set is classed as cell-based. Further details: expressed in transfected cells. To be noted: Table 2; for Emax: cAMP activity, read-out: hMC5R % max effect. In general terms: cAMP levels reflect the balance of adenylyl cyclase and phosphodiesterase activity.
Protocol: (§3) IC50 and EC50 estimates and their associated standard errors were determined by fitting the data using a nonlinear least squares analysis, with the help of GraphPad Prism 5 (GraphPad Software, San Diego, Calif.).
Another data set is described as follows: in vitro. It is filed as in vitro ADME.
In data set [6] the target is T2, hMC3R. Nature of the data set: cAMP assay (intracellular cAMP accumulation) at hMC3R. It is filed as cell-based. Further details: expressed in transfected cells. To be noted: Table 2; for EC50: 50% maximal intracellular cAMP accumulation (N = 4), tested 10^-10 to 10^-5 M.
Protocol: as §3
For data set [7], the target named is T1, hMC1R. The data set is described as follows: cAMP assay (intracellular cAMP accumulation) at hMC1R. It is filed as cell-based. To be noted: Table 2; cAMP activity; read-out: hMC1R % max effect.
Protocol: as §3
Data set [8] concerns the target T4, hMC4R. The data set is described as follows: cAMP assay (intracellular cAMP accumulation) at hMC4R. It is filed as cell-based. Further details: expressed in transfected cells. To be noted: Table 2; for Emax: cAMP activity, read-out: hMC4R % max effect.
Protocol: as §3
Where [9] appears, read: Table 2, concentration of peptide at 50% specific binding (N = 4), tested 10^-10 to 10^-5 M, read-out: hMC3R IC50.
Where [10] appears, read: Table 2, concentration of peptide at 50% specific binding (N = 4), tested 10^-10 to 10^-5 M, read-out: hMC5R IC50.
[11] abbreviates: Table 4, 50% specific binding (N = 4), NB = 0% of 125I-NDP-α-MSH displacement observed at 10 μM, read-out: MC3R IC50.
The mark [12] stands for this setting: Table 4, 50% specific binding (N = 4), NB = 0% of 125I-NDP-α-MSH displacement observed at 10 μM, read-out: MC5R IC50.
[13] abbreviates: Table 4, 50% specific binding (N = 4), NB = 0% of 125I-NDP-α-MSH displacement observed at 10 μM, read-out: MC4R IC50.
The mark [14] stands for this setting: 50% maximal intracellular cAMP accumulation (N = 4), tested 10^-10 to 10^-5 M.

Where two headings read alike, the source gives them in different places.

T1 sequence (Q01726 whole entry): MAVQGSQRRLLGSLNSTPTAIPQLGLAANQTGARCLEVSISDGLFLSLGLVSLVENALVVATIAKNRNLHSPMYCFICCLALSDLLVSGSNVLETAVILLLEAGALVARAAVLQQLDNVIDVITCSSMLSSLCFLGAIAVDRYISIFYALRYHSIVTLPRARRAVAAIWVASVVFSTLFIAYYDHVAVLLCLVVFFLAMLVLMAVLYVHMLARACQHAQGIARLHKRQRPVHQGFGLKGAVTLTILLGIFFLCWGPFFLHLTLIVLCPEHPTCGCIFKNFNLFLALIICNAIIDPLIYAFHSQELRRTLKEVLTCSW
T3 sequence (P33032 whole entry): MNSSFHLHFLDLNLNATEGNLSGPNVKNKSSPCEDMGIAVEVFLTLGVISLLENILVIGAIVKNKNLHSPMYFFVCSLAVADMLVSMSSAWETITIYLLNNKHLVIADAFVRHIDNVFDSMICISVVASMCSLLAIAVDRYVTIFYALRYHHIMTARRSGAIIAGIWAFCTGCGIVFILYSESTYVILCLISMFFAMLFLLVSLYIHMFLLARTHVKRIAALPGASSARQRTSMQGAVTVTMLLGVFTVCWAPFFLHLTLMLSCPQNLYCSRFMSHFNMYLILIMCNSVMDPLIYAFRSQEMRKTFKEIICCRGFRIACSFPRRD
T2 sequence (P41968 whole entry): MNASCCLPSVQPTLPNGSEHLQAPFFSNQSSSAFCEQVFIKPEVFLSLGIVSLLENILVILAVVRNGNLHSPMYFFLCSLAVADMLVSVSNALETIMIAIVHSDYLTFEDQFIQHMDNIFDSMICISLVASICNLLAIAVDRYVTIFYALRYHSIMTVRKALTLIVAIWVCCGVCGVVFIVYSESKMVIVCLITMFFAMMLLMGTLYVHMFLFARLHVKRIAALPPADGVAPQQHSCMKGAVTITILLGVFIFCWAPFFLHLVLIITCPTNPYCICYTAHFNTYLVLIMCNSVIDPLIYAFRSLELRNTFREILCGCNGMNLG
T4 sequence (P32245 whole entry): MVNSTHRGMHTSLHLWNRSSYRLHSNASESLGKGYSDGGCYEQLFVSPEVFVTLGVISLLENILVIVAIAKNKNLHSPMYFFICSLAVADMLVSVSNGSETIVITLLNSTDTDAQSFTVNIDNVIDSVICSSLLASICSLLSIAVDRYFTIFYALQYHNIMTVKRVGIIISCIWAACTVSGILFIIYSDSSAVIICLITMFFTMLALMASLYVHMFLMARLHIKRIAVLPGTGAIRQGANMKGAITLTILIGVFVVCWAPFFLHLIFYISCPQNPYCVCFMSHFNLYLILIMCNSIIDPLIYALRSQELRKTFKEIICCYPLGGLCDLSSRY

Turning to “H-YVLGHFLWDRFG-NH2 [SEQ ID NO. 4] [listing 1 of 2 here]”, the “MC1R % BE (Percent Binding Efficiency)” value on hMC1R [1] was 100%. For the same molecule, the “MC3R % BE (Percent Binding Efficiency)” value on hMC3R [2] (Table 4) was determined as 26%. Also, the “MC5R % BE (Percent Binding Efficiency)” value on hMC5R [3] (Table 4) is reported as 57%. The “MC4R % BE (Percent Binding Efficiency)” value at hMC4R [4] (Table 4) was found to be 47%.
Usually IC50 stands for the point on the concentration scale where inhibition reaches its midpoint. As usually defined, the half-life is how long it takes for the measured level to halve. Read a low half-life as fast loss. As a reminder, the EC50 is the concentration that produces a half-maximal response. Consider `CCCC[C@H](NC(=O)[C@@H](NC(=O)[C@@H](N)Cc1ccc(O)cc1)C(C)C)C(=O)NCC(=O)N[C@@H](Cc1cnc[nH]1)C(=O)N[C@H](Cc1ccc2ccccc2c1)C(=O)N[C@@H](CCCN=C(N)N)C(=O)N[C@H](Cc1c[nH]c2ccccc12)C(=O)N[C@@H](CC(=O)O)C(=O)N[C@@H](CCCN=C(N)N)C(=O)N[C@@H](Cc1ccccc1)C(=O)NCC(N)=O` [SEQ ID NO. 11, H-Tyr-Val-Nle-Gly-His-D-Nal(2′)-Arg-D-Trp-Asp-Arg-Phe-Gly-NH2], for which the Emax at hMC5R [5] was 6%; at hMC3R [6] (cAMP activity, read-out: hMC3R % max effect), 6%; at hMC1R [7] it was 70%. Moreover, the figures for the IC50 on hMC3R [2] (setting [9]) and at hMC5R [3] (setting [10]) were 5 ± 0.6 nM and 3.5 ± 0.5 nM, respectively. In addition, the half-life in “in vitro” is 52 min. The same molecule had an EC50 at hMC3R [6] of 300 ± 6 nM.
Consider `CC(C)C[C@H](NC(=O)[C@@H](NC(=O)[C@@H](N)Cc1ccc(O)cc1)C(C)C)C(=O)NCC(=O)N[C@@H](Cc1c[nH]cn1)C(=O)N[C@@H](Cc1ccccc1)C(=O)N[C@@H](CCCNC(=N)N)C(=O)N[C@@H](Cc1c[nH]c2ccccc12)C(=O)N[C@@H](CC(=O)O)C(=O)N[C@@H](CCCNC(=N)N)C(=O)N[C@@H](Cc1ccccc1)C(=O)NCC(N)=O` [SEQ ID NO. 9], for which the IC50 on hMC1R [1] is 198 nM; on hMC3R [2] (setting [11]), 1620 nM; at hMC5R [3] (setting [12]), above 10000 nM; at hMC4R [4] (setting [13]), 1020 nM. At hMC3R [2] (Table 4), the “MC3R % BE (Percent Binding Efficiency)” value is reported as 53%. The “MC5R % BE (Percent Binding Efficiency)” value at hMC5R [3] (Table 4) is on record as 60%. Besides, the “MC4R % BE (Percent Binding Efficiency)” value at hMC4R [4] (Table 4) amounted to 100%.
For the molecule “H-YVLGHFLFDRFG-NH2 [SEQ ID NO. 5] [listing 1 of 2 here]”, at hMC1R [1], the “MC1R % BE (Percent Binding Efficiency)” value was determined as 100% and the “selectivity towards hMC1R (binding, versus hMC3R, hMC4R, hMC5R)” value is given as “highly selective for MC1R”. Moreover, on hMC1R [1] (listed as Peptide 5), the “selectivity towards hMC1R (binding, versus hMC3R, hMC4R, hMC5R)” value is “significant selectivity towards hMC1R”. Moreover, the “MC3R % BE (Percent Binding Efficiency)” value at hMC3R [2] (Table 4) is 45%. Also, the “MC5R % BE (Percent Binding Efficiency)” value at hMC5R [3] (Table 4) is listed as 0%. On hMC4R [4] (Table 4), the “MC4R % BE (Percent Binding Efficiency)” value was found to be 58%.
Regarding “H-YVLGHFLWDRFG-NH2 [SEQ ID NO. 4] [listing 2 of 2 here]”, the IC50 at hMC1R [1] was 1480 nM; at hMC3R [2] (setting [11]) it was 1880 nM; at hMC5R [3] (setting [12]), 7.3 nM; at hMC4R [4] (setting [13]) it was above 10000 nM.
Consider “H-YVLGHFLFDRFG-NH2 [SEQ ID NO. 5] [listing 2 of 2 here]”, for which the IC50 on hMC1R [1] is 22 nM; on hMC3R [2] (setting [11]), above 10000 nM; at hMC4R [4] (setting [13]), 3210 nM.
As for H-YVLGPFLWDRFG-NH2 [SEQ ID NO. 6], the IC50 came out at 40 nM at hMC3R [2] (setting [11]), 1.7 nM at hMC5R [3] (setting [12]) and 13 nM on hMC4R [4] (setting [13]). In addition, the “MC3R % BE (Percent Binding Efficiency)” value at hMC3R [2] (Table 4) is reported as 32%. Further, on hMC5R [3] (Table 4), the “MC5R % BE (Percent Binding Efficiency)” value is given as 32%. The “MC4R % BE (Percent Binding Efficiency)” value at hMC4R [4] (Table 4) amounted to 29%.
H-YVLGPFRWDRFG-NH2 [SEQ ID NO. 2]: the results for the IC50 on hMC3R [2] (setting [11]), on hMC5R [3] (setting [12]) and at hMC4R [4] (setting [13]) were 165 nM, 67 nM and 76 nM, respectively. Further, the “MC3R % BE (Percent Binding Efficiency)” value on hMC3R [2] (Table 4) was determined as 100%. Further, the “MC5R % BE (Percent Binding Efficiency)” value at hMC5R [3] (Table 4) stood at 100%. In addition, the “MC4R % BE (Percent Binding Efficiency)” value at hMC4R [4] (Table 4) came to 100%.
On to H-YVLGPFLFDRFG-NH2 [SEQ ID NO. 7], for which the IC50 stood at 11 nM on hMC1R [1], 1400 nM on hMC3R [2] (setting [11]), 5.3 nM at hMC5R [3] (setting [12]) and 58 nM on hMC4R [4] (setting [13]). For the same molecule, the “MC1R % BE (Percent Binding Efficiency)” value on hMC1R [1] amounted to 32%. The “MC3R % BE (Percent Binding Efficiency)” value on hMC3R [2] (Table 4) was 47%. The “MC5R % BE (Percent Binding Efficiency)” value at hMC5R [3] (Table 4) was 34%. In addition, the “MC4R % BE (Percent Binding Efficiency)” value on hMC4R [4] (Table 4) was found to be 36%.
Turning to `CCCC[C@H](NC(=O)[C@@H](NC(=O)[C@H](Cc1ccc(O)cc1)NC(C)=O)C(C)C)C(=O)NCC(=O)N[C@@H](Cc1c[nH]cn1)C(=O)N[C@H](Cc1ccccc1)C(=O)N[C@@H](CCCNC(=N)N)C(=O)N[C@@H](Cc1c[nH]c2ccccc12)C(=O)N[C@@H](CC(=O)O)C(=O)N[C@@H](CCCNC(=N)N)C(=O)N[C@@H](Cc1ccccc1)C(=O)NCC(N)=O` [SEQ ID NO. 12, Ac-Tyr-Val-Nle-Gly-His-D-Phe-Arg-Trp-Asp-Arg-Phe-Gly-NH2, reference compound], on hMC4R [8], the Emax amounted to 100%.
With H-YVLGPFRFDRFG-NH2 [SEQ ID NO. 3], on hMC1R [1], the “MC1R % BE (Percent Binding Efficiency)” value was 0%. Also, the IC50 on hMC3R [2] (setting [11]) amounted to 1250 nM. In addition, on hMC3R [2] (Table 4), the “MC3R % BE (Percent Binding Efficiency)” value was found to be 33%. In addition, at hMC5R [3] (Table 4), the “MC5R % BE (Percent Binding Efficiency)” value was determined as 0%. Besides, on hMC4R [4] (Table 4), the “MC4R % BE (Percent Binding Efficiency)” value worked out at 0%.
For the molecule H-YVMGPFRWDRFG-NH2 [SEQ ID NO. 10], the EC50 on hMC5R [5] (setting [14]) amounted to 82 ± 10 nM; on hMC4R [8] (setting [14]) it was 100 ± 11 nM; on hMC3R [6] it was 0.33 ± 0.01 nM. Moreover, the Emax on hMC5R [5] was determined as 97%; at hMC4R [8] it was 99%. Besides, the IC50 on hMC3R [2] (setting [9]) is 6.7 ± 1 nM; at hMC5R [3] (setting [10]), 340 ± 40 nM; on hMC4R [4] (Table 2, concentration of peptide at 50% specific binding (N = 4), tested 10^-10 to 10^-5 M, read-out: hMC4R IC50) it was 600 ± 70 nM.
